Literature values in patent US7981605B2, “Epidermal growth factor receptor mutations” (Amgen Inc., priority 2005, dated 2011).

How the values were obtained:
A431 tumor xenografts = settings: athymic mice
[1] = system: NSCLC tumors with EGFr mutations; settings: deletions in amino acids 746-759 region, L858R, L861Q, G719C, G719S, R776C/L858R (Lynch, Paez, Pao 2004)

| Compound | formation of A431 xenografts (A431 tumor xenografts) | sensitivity of NSCLC tumors with EGFr mutations [1] |
| --- | --- | --- |
| panitumumab: a human IgG2 monoclonal antibody against human EGFr; human anti-EGFr antibody (Amgen) | preventing the formation of human epidermoid carcinoma A431 xenografts |  |
| C#Cc1cccc(Nc2ncnc3cc(OCCOC)c(OCCOC)cc23)c1 [erlotinib, N-(3-ethynylphenyl)-6,7-bis(2-methoxyethoxy)-4-quinazolinamine] |  | display sensitivity |
